Assay [1] concerns the target T1, FAK (Homo sapiens, UniProt Q05397). Kind of assay: biochemical.
Assay [2] addresses T1, FAK. Kind of assay: Cell-based capture ELISA for inhibition of FAK autophosphorylation [pY397] in MiaPaCa2 cells. As to the method:
Cell-Based Assays for Inhibition of FAK Autophosphorylation: MiaPaCa2 and U87MG
ELISA kit from Invitrogen (KHO0441).
Reagents Provided in Biosource FAK [pY397]
The cells were then suspended in cell assay medium.
In general terms: An ELISA detects its analyte on a solid surface through an enzyme-linked reagent.

Where [3] appears, read: MIA-PaCa2 cells on fibronectin, 2 h, no plasma, read-out: Mean FAK Cell Mechanistic IC50 MIA-PaCa2.
Where [4] appears, read: MIA-PaCa2 cells, + 50% human plasma, read-out: Mean FAK Cell Mechanistic IC50 + 50% hP MIA-PaCa2.
The mark [5] stands for this setting: MIA-PaCa2 cells, + 50% mouse plasma (Table 2), read-out: Mean FAK Cell Mechanistic IC50 + 50% mP MIA-PaCa2.

pIC50: −log10 of the molar value.

By pIC50 is commonly meant the negative decadic logarithm of the IC50, by convention in mol/L.

T1 sequence (Q05397 whole entry): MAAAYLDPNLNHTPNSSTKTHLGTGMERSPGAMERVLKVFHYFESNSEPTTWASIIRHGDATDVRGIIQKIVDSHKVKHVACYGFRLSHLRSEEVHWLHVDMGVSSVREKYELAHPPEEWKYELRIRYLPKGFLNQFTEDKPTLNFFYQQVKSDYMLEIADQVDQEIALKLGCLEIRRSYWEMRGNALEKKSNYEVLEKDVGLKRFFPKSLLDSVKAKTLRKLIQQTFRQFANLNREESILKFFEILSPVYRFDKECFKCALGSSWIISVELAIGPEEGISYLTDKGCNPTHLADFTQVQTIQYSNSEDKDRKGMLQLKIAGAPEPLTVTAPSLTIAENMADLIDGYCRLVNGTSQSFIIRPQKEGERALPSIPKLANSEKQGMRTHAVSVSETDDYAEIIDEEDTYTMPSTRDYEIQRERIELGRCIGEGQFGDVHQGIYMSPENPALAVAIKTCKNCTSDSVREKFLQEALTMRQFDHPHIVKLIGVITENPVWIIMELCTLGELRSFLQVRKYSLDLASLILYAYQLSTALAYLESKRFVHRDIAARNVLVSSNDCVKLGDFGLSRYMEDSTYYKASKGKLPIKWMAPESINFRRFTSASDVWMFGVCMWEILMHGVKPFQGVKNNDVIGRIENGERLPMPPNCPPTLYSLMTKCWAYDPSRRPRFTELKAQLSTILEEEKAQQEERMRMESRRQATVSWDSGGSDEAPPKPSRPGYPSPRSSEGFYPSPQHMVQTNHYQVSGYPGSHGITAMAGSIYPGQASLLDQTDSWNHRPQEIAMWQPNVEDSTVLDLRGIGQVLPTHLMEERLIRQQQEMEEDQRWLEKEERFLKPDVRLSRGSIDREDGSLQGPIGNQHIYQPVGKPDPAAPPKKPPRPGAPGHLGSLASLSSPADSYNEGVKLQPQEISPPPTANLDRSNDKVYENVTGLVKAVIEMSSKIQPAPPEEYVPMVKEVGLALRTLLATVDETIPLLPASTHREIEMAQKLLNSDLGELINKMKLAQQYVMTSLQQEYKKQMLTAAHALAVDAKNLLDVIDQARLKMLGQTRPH

On to `CCOP(C)(=O)Cc1ccc(Nc2ncc(C(F)(F)F)c(Nc3ccc(C(C)C)c4c3C(=O)N(C)C4)n2)cc1` (stereo not shown) [Example 78, Ethyl methyl(4-{[4-{[2-methyl-3-oxo-7-(propan-2-yl)-2,3-dihydro-1H-isoindol-4-yl]amino}-5-(trifluoromethyl)pyrimidin-2-yl]amino}benzyl)phosphinate], for which the pIC50 against FAK [1] and on FAK [2] (setting [3]) was above 6.00 in each case.
Turning to `CCOP(C)(=O)Cc1ccc(Nc2ncc(C(F)(F)F)c(Nc3ccc(C4CCC(O)CC4)c4c3C(=O)N(C)C4)n2)cc1` (stereo not shown) [Example 79, Ethyl (4-{[4-{[7-(4-hydroxycyclohexyl)-2-methyl-3-oxo-2,3-dihydro-1H-isoindol-4-yl]amino}-5-(trifluoromethyl)pyrimidin-2-yl]amino}benzyl)methylphosphinate], the negative logarithm of the IC50 (pIC50) against FAK [1], on FAK [2] (setting [3]) and at FAK [2] (setting [4]) was above 6.00 in each case.
On to `CCOP(C)(=O)Cc1ccc(Nc2ncc(C(F)(F)F)c(Nc3ccc(N4CCCC4)c4c3C(=O)N(C)C4)n2)cc1` (stereo not shown) [Example 80, Ethyl methyl(4-{[4-{[2-methyl-3-oxo-7-(pyrrolidin-1-yl)-2,3-dihydro-1H-isoindol-4-yl]amino}-5-(trifluoromethyl)pyrimidin-2-yl]amino}benzyl)phosphinate], for which the pIC50 at FAK [1], at FAK [2] (setting [3]) and at FAK [2] (setting [4]) was above 6.00 in each case.
As to `CCOP(C)(=O)Cc1ccc(Nc2ncc(C(F)(F)F)c(Nc3ccc(N4CCC(O)C4)c4c3C(=O)N(C)C4)n2)cc1` (stereo not shown) [Example 81, Ethyl (4-{[4-{[7-(3-hydroxypyrrolidin-1-yl)-2-methyl-3-oxo-2,3-dihydro-1H-isoindol-4-yl]amino}-5-(trifluoromethyl)pyrimidin-2-yl]amino}benzyl)methylphosphinate], the pIC50 on FAK [1], at FAK [2] (setting [3]) and on FAK [2] (setting [4]) was above 6.00 throughout.
On to `CCOP(C)(=O)Cc1ccc(Nc2ncc(C(F)(F)F)c(Nc3ccc(N4CCCCC4)c4c3C(=O)N(C)C4)n2)cc1` (stereo not shown) [Example 82, Ethyl methyl(4-{[4-{[2-methyl-3-oxo-7-(piperidin-1-yl)-2,3-dihydro-1H-isoindol-4-yl]amino}-5-(trifluoromethyl)pyrimidin-2-yl]amino}benzyl)phosphinate], for which the pIC50 against FAK [1], on FAK [2] (setting [3]) and on FAK [2] (setting [4]) was above 6.00 each time.
With `CCOP(=O)(Cc1ccc(Nc2ncc(C(F)(F)F)c(Nc3ccc(N4CCCC4)c4c3C(=O)N(C)C4)n2)c(OC)c1)OCC` [Example 83, Diethyl (3-methoxy-4-{[4-{[2-methyl-3-oxo-7-(pyrrolidin-1-yl)-2,3-dihydro-1H-isoindol-4-yl]amino}-5-(trifluoromethyl)pyrimidin-2-yl]amino}benzyl)phosphonate], the pIC50 at FAK [1] and at FAK [2] (setting [5]) was above 6.00 in each case.
In the case of `CCOP(=O)(Cc1ccc(Nc2ncc(C(F)(F)F)c(Nc3ccc(N4CC[C@H](O)C4)c4c3C(=O)N(C)C4)n2)c(OC)c1)OCC` [Example 84, Diethyl (4-{[4-({7-[(3S)-3-hydroxypyrrolidin-1-yl]-2-methyl-3-oxo-2,3-dihydro-1H-isoindol-4-yl}amino)-5-(trifluoromethyl)pyrimidin-2-yl]amino}-3-methoxybenzyl)phosphonate], the pIC50 against FAK [1] and on FAK [2] (setting [5]) was above 6.00 each time.
Take `CCOP(=O)(Cc1ccc(Nc2ncc(C(F)(F)F)c(Nc3ccc(N4CCC(O)CC4)c4c3C(=O)N(C)C4)n2)c(OC)c1)OCC` [Example 85, Diethyl (4-{[4-{[7-(4-hydroxypiperidin-1-yl)-2-methyl-3-oxo-2,3-dihydro-1H-isoindol-4-yl]amino}-5-(trifluoromethyl)pyrimidin-2-yl]amino}-3-methoxybenzyl)phosphonate]: the pIC50 on FAK [1] and at FAK [2] (setting [5]) was above 6.00 throughout.
As to `CCOP(=O)(Cc1ccc(Nc2ncc(C(F)(F)F)c(Nc3ccc(N4CCCC(O)C4)c4c3C(=O)N(C)C4)n2)c(OC)c1)OCC` (stereo not shown) [Example 86, Diethyl (4-{[4-{[7-(3-hydroxypiperidin-1-yl)-2-methyl-3-oxo-2,3-dihydro-1H-isoindol-4-yl]amino}-5-(trifluoromethyl)pyrimidin-2-yl]amino}-3-methoxybenzyl)phosphonate], the negative logarithm of the IC50 (pIC50) at FAK [1] and at FAK [2] (setting [5]) was above 6.00 throughout.
Consider `CCOC(=O)[C@H]1CC[C@@H](c2ccc(Nc3nc(Nc4ccc(CP(=O)(OCC)OCC)cc4OC)ncc3C(F)(F)F)c3c2CN(C)C3=O)CC1` [Example 87, Ethyl cis-4-(7-{[2-({4-[(diethoxyphosphoryl)methyl]-2-methoxyphenyl}amino)-5-(trifluoromethyl)pyrimidin-4-yl]amino}-2-methyl-1-oxo-2,3-dihydro-1H-isoindol-4-yl)cyclohexanecarboxylate], for which the negative logarithm of the IC50 (pIC50) against FAK [1] and on FAK [2] (setting [5]) was above 6.00 in each case.
For the compound `CCOC(=O)[C@H]1CC[C@H](c2ccc(Nc3nc(Nc4ccc(CP(=O)(OCC)OCC)cc4OC)ncc3C(F)(F)F)c3c2CN(C)C3=O)CC1` [Example 88, Ethyl trans-4-(7-{[2-({4-[(diethoxyphosphoryl)methyl]-2-methoxyphenyl}amino)-5-(trifluoromethyl)pyrimidin-4-yl]amino}-2-methyl-1-oxo-2,3-dihydro-1H-isoindol-4-yl)cyclohexanecarboxylate], the pIC50 at FAK [1] and on FAK [2] (setting [5]) was above 6.00 throughout.
For `CCOP(=O)(Cc1ccc(Nc2ncc(C(F)(F)F)c(Nc3ccc([C@H]4CC[C@H](C(=O)O)CC4)c4c3C(=O)N(C)C4)n2)c(OC)c1)OCC` [Example 90, Trans-4-(7-{[2-({4-[(diethoxyphosphoryl)methyl]-2-methoxyphenyl}amino)-5-(trifluoromethyl)pyrimidin-4-yl]amino}-2-methyl-1-oxo-2,3-dihydro-1H-isoindol-4-yl)cyclohexanecarboxylic acid], the pIC50 on FAK [1] and at FAK [2] (setting [5]) was above 6.00 each time.
Take `CCOP(=O)(Cc1ccc(Nc2ncc(C(F)(F)F)c(Nc3ccc([C@H]4CC[C@@H](O)CC4)c4c3C(=O)N(C)C4)n2)c(OC)c1)OCC` [Example 94, Diethyl (4-{[4-{[7-(cis-4-hydroxycyclohexyl)-2-methyl-3-oxo-2,3-dihydro-1H-isoindol-4-yl]amino}-5-(trifluoromethyl)pyrimidin-2-yl]amino}-3-methoxybenzyl)phosphonate]: the pIC50 at FAK [1] and at FAK [2] (setting [5]) was above 6.00 throughout.
Take `CCOP(=O)(Cc1ccc(Nc2ncc(C(F)(F)F)c(Nc3ccc([C@H]4CC[C@H](N5CCN(C)CC5)CC4)c4c3C(=O)N(C)C4)n2)c(OC)c1)OCC` [Example 96, Diethyl (3-methoxy-4-{[4-({2-methyl-7-[trans-4-(4-methylpiperazin-1-yl)cyclohexyl]-3-oxo-2,3-dihydro-1H-isoindol-4-yl}amino)-5-(trifluoromethyl)pyrimidin-2-yl]amino}benzyl)phosphonate]: the negative-log IC50 (pIC50) on FAK [1] and on FAK [2] (setting [5]) was above 6.00 each time.
`CCOP(=O)(Cc1ccc(Nc2ncc(C(F)(F)F)c(Nc3ccc(-c4cnn(C5CC(O)C5)c4)c4c3C(=O)N(C)C4)n2)c(OC)c1)OCC` (stereo not shown) [Example 100, Diethyl (4-{[4-({7-[1-(3-hydroxycyclobutyl)-1H-pyrazol-4-yl]-2-methyl-3-oxo-2,3-dihydro-1H-isoindol-4-yl}amino)-5-(trifluoromethyl)pyrimidin-2-yl]amino}-3-methoxybenzyl)phosphonate]: the pIC50 at FAK [1] was above 6.00; on FAK [2] (MIA-PaCa2 cells, + 50% mouse plasma (Table 3), read-out: Mean FAK Cell Mechanistic IC50 + 50% mP MIA-PaCa2) it was above 6.00.
